This passage reports IC50 and inhibition results from ChEMBL document CHEMBL5154706, “Synthesis of lathyrane diterpenoid nitrogen-containing heterocyclic derivatives and evaluation of their anti-inflammatory activities” (Bioorg Med Chem, 2022).

Structures are written as SMILES. pIC50: −log10 of the molar value. The source made the active and inactive calls. No cut-off for these calls is given here. Some results are limits rather than exact numbers.

One assay has as its system RAW264.7. Nature of the assay: Antiinflammatory activity against mouse RAW264.7 cells assessed as inhibition of LPS-induced NO production preincubated for 3 hrs followed by LPS stimulation and measured after 24 hrs by Griess reagent based assay. Format: functional, cell-based.
Settings: not given
A general note: Griess reagent forms a coloured azo dye with nitrite.
For the compound `C=C1CC[C@H]2[C@@H](/C=C(\C)C(=O)[C@@]3(O)C[C@H](C)[C@H](O)[C@@H]3[C@H]1OC(=O)c1cn(-c3ccccc3)nc1-c1ccc(F)cc1)C2(C)C`, the pIC50 (commonly −log10 of the IC50, conventionally taken in molar units) was 4.97. Consider `CCn1cc(C(=O)O[C@@H]2[C@H]3[C@@H](O)[C@@H](C)C[C@]3(O)C(=O)/C(C)=C/[C@@H]3[C@H](CC[C@]24CO4)C3(C)C)c(-c2ccc(C(F)(F)F)cc2)n1`, for which the pIC50 was 4.97. The same measure, in the same setting: then `C=C1CC[C@H]2[C@@H](/C=C(\C)C(=O)[C@@]3(OC(C)=O)C[C@H](C)[C@H](OC(=O)c4ccccc4)[C@@H]3[C@H]1OC(C)=O)C2(C)C`, with 5.09; and `C=C1CC[C@H]2[C@@H](/C=C(\C)C(=O)[C@@]3(O)C[C@H](C)[C@H](O)[C@@H]3[C@H]1OC(=O)c1cn(-c3ccccc3)nc1-c1ccc(C)cc1)C2(C)C`, with less than 4.70; and `C=C1CC[C@H]2[C@@H](/C=C(\C)C(=O)[C@@]3(O)C[C@H](C)[C@H](O)[C@@H]3[C@H]1OC(=O)CCC(=O)OCc1c(-c3ccccc3)no[n+]1[O-])C2(C)C`, with 5.26. For `C=C1CC[C@H]2[C@@H](/C=C(\C)C(=O)[C@@]3(O)C[C@H](C)[C@H](O)[C@@H]3[C@H]1OC(=O)CCC(=O)NCCOc1no[n+]([O-])c1S(=O)(=O)c1ccccc1)C2(C)C`, the pIC50 was 5.92.

With `C=C1CC[C@H]2[C@@H](/C=C(\C)C(=O)[C@@]3(O)C[C@H](C)[C@H](O)[C@@H]3[C@H]1OC(=O)c1cn(-c3ccccc3)nc1-c1ccc(C(F)(F)F)cc1)C2(C)C`, the pIC50 is 4.95. On the same count and under the same terms, for `C=C1CC[C@H]2[C@@H](/C=C(\C)C(=O)[C@@]3(O)C[C@H](C)[C@H](O)[C@@H]3[C@H]1OC(=O)c1cn(CC)nc1-c1ccc(C(F)(F)F)cc1)C2(C)C` the value was 5.11; for `C/C1=C\[C@@H]2[C@H](CC[C@]3(CO3)[C@H](O)[C@H]3[C@@H](O)[C@@H](C)C[C@]3(O)C1=O)C2(C)C`, 4.59; for `C=C1CC[C@H]2[C@@H](/C=C(\C)C(=O)[C@@]3(O)C[C@H](C)[C@H](O)[C@@H]3[C@H]1OC(=O)c1cn(CC)nc1-c1ccc(C)cc1)C2(C)C`, 5.11. On the same count and under the same terms, for `C/C1=C\[C@@H]2[C@H](CC[C@]3(CO3)[C@H](OC(=O)c3cnc(NC(=O)c4ccccc4)s3)[C@H]3[C@@H](O)[C@@H](C)C[C@]3(O)C1=O)C2(C)C` the value was 4.96; for `C/C1=C\[C@@H]2[C@H](CC[C@]3(CO3)[C@H](OC(=O)c3cn(-c4ccccc4)nc3-c3ccc(N(C)C)cc3)[C@H]3[C@@H](O)[C@@H](C)C[C@]3(O)C1=O)C2(C)C`, less than 4.70. Same read-out and setting: then `C/C1=C\[C@@H]2[C@H](CC[C@]3(CO3)[C@H](OC(=O)CCC(=O)OCc3c(-c4ccccc4)no[n+]3[O-])[C@H]3[C@@H](O)[C@@H](C)C[C@]3(O)C1=O)C2(C)C`, with 5.03; and `C=C1CC[C@H]2[C@@H](/C=C(\C)C(=O)[C@@]3(O)C[C@H](C)[C@H](O)[C@@H]3[C@H]1OC(=O)c1cnc(NC(=O)C3CCCCC3)s1)C2(C)C`, with 5.26.

On to `C/C1=C\[C@@H]2[C@H](CC[C@]3(CO3)[C@H](OC(=O)c3cn(-c4ccccc4)nc3-c3ccc(C)cc3)[C@H]3[C@@H](O)[C@@H](C)C[C@]3(O)C1=O)C2(C)C`, for which the pIC50 was less than 4.70. Same read-out and setting: then `C=C1CC[C@H]2[C@@H](/C=C(\C)C(=O)[C@@]3(O)C[C@H](C)[C@H](O)[C@@H]3[C@H]1OC(=O)c1cn(-c3ccccc3)nc1-c1ccc(N(C)C)cc1)C2(C)C`, with less than 4.70; and `CC(=O)Nc1ncc(C(=O)O[C@@H]2[C@H]3[C@@H](O)[C@@H](C)C[C@]3(O)C(=O)/C(C)=C/[C@@H]3[C@H](CC[C@]24CO4)C3(C)C)s1`, with less than 4.70; and `C/C1=C\[C@@H]2[C@H](CC[C@]3(CO3)[C@H](OC(=O)CCC(=O)OCC#CCOc3no[n+]([O-])c3S(=O)(=O)c3ccccc3)[C@H]3[C@@H](O)[C@@H](C)C[C@]3(O)C1=O)C2(C)C`, with 6.00. Same read-out and setting: for `C=C1CC[C@H]2[C@@H](/C=C(\C)C(=O)[C@@]3(O)C[C@H](C)[C@H](O)[C@@H]3[C@H]1OC(=O)c1cnc(NC(=O)c3ccccc3)s1)C2(C)C` the value was 5.15.

Take `C=C1CC[C@H]2[C@@H](/C=C(\C)C(=O)[C@@]3(O)C[C@H](C)[C@H](O)[C@@H]3[C@H]1OC(=O)c1cnc(NC(=O)/C=C/c3ccccc3)s1)C2(C)C`: the pIC50 was less than 4.70. The same measure, in the same setting: then `C/C1=C\[C@@H]2[C@H](CC[C@]3(CO3)[C@H](OC(=O)CCC(=O)OCCOCCOc3no[n+]([O-])c3S(=O)(=O)c3ccccc3)[C@H]3[C@@H](O)[C@@H](C)C[C@]3(O)C1=O)C2(C)C`, with 5.47; and `C/C1=C\[C@@H]2[C@H](CC[C@]3(CO3)[C@H](OC(=O)c3cn(-c4ccccc4)nc3-c3ccc(Cl)cc3)[C@H]3[C@@H](O)[C@@H](C)C[C@]3(O)C1=O)C2(C)C`, with less than 4.70.

With `C/C1=C\[C@@H]2[C@H](CC[C@]3(CO3)[C@H](OC(=O)CCN3C(=O)CS/C3=N\c3ccccc3)[C@H]3[C@@H](O)[C@@H](C)C[C@]3(O)C1=O)C2(C)C`, the negative logarithm of the IC50 (pIC50) was less than 4.70. `C/C1=C\[C@@H]2[C@H](CC[C@]3(CO3)[C@H](OC(=O)CCC(=O)OCc3ccc(COc4no[n+]([O-])c4S(=O)(=O)c4ccccc4)cc3)[C@H]3[C@@H](O)[C@@H](C)C[C@]3(O)C1=O)C2(C)C`: the pIC50 is 5.58.

Regarding `C/C1=C\[C@@H]2[C@H](CC[C@]3(CO3)[C@H](OC(=O)CCC(=O)OCCCCOc3no[n+]([O-])c3S(=O)(=O)c3ccccc3)[C@H]3[C@@H](O)[C@@H](C)C[C@]3(O)C1=O)C2(C)C`, the pIC50 was 5.74. Regarding `C=C1CC[C@H]2[C@@H](/C=C(\C)C(=O)[C@@]3(O)C[C@H](C)[C@H](O)[C@@H]3[C@H]1OC(=O)c1cn(-c3ccccc3)nc1-c1ccc(OC)cc1)C2(C)C`, the pIC50 is less than 4.70. The same measure, in the same setting: for `C=C1CC[C@H]2[C@@H](/C=C(\C)C(=O)[C@@]3(O)C[C@H](C)[C@H](O)[C@@H]3[C@H]1OC(=O)CCC(=O)OCCCCOc1no[n+]([O-])c1S(=O)(=O)c1ccccc1)C2(C)C` the value was 5.81; for `C/C1=C\[C@@H]2[C@H](CC[C@]3(CO3)[C@H](OC(=O)CCC(=O)NCCOc3no[n+]([O-])c3S(=O)(=O)c3ccccc3)[C@H]3[C@@H](O)[C@@H](C)C[C@]3(O)C1=O)C2(C)C`, 5.84. The same measure, in the same setting: then `C=C1CC[C@H]2[C@@H](/C=C(\C)C(=O)[C@@]3(O)C[C@H](C)[C@H](O)[C@@H]3[C@H]1OC(=O)c1cnc(NC(C)=O)s1)C2(C)C`, with less than 4.70; and `CCn1cc(C(=O)O[C@@H]2[C@H]3[C@@H](O)[C@@H](C)C[C@]3(O)C(=O)/C(C)=C/[C@@H]3[C@H](CC[C@]24CO4)C3(C)C)c(-c2ccc(F)cc2)n1`, with 4.87. On the same count and under the same terms, then `C=C1CC[C@H]2[C@@H](/C=C(\C)C(=O)[C@@]3(O)C[C@H](C)[C@H](O)[C@@H]3[C@H]1OC(=O)c1cn(-c3ccccc3)nc1-c1ccc(Cl)cc1)C2(C)C`, with less than 4.70; and `C=C1CC[C@H]2[C@@H](/C=C(\C)C(=O)[C@@]3(O)C[C@H](C)[C@H](O)[C@@H]3[C@H]1OC(=O)c1cn(CC)nc1-c1ccc(F)cc1)C2(C)C`, with less than 4.70; and `C=C1CC[C@H]2[C@@H](/C=C(\C)C(=O)[C@@]3(O)C[C@H](C)[C@H](O)[C@@H]3[C@H]1OC(=O)CCC(=O)OCC#CCOc1no[n+]([O-])c1S(=O)(=O)c1ccccc1)C2(C)C`, with 6.07.

Take `C/C1=C\[C@@H]2[C@H](CC[C@]3(CO3)[C@H](OC(=O)c3cn(-c4ccccc4)nc3-c3ccc(F)cc3)[C@H]3[C@@H](O)[C@@H](C)C[C@]3(O)C1=O)C2(C)C`: the negative logarithm of the IC50 (pIC50) was 4.97. Consider `C=C1CC[C@H]2[C@@H](/C=C(\C)C(=O)[C@@]3(O)C[C@H](C)[C@H](O)[C@@H]3[C@H]1OC(=O)CCN1C(=O)CS/C1=N\c1ccccc1)C2(C)C`, for which the pIC50 was 5.08. Still for that read-out and setting: then `C=C1CC[C@H]2[C@@H](/C=C(\C)C(=O)[C@@]3(O)C[C@H](C)[C@H](O)[C@@H]3[C@H]1O)C2(C)C`, with 4.95. Consider `C/C1=C\[C@@H]2[C@H](CC[C@]3(CO3)[C@H](OC(=O)c3cnc(NC(=O)/C=C/c4ccccc4)s3)[C@H]3[C@@H](O)[C@@H](C)C[C@]3(O)C1=O)C2(C)C`, for which the pIC50 is less than 4.70.

As for `CCn1cc(C(=O)O[C@@H]2[C@H]3[C@@H](O)[C@@H](C)C[C@]3(O)C(=O)/C(C)=C/[C@@H]3[C@H](CC[C@]24CO4)C3(C)C)c(-c2ccc(Cl)cc2)n1`, the pIC50 was 4.80. Same read-out and setting: then `CCn1cc(C(=O)O[C@@H]2[C@H]3[C@@H](O)[C@@H](C)C[C@]3(O)C(=O)/C(C)=C/[C@@H]3[C@H](CC[C@]24CO4)C3(C)C)c(-c2ccc(C)cc2)n1`, with less than 4.70; and `C=C1CC[C@H]2[C@@H](/C=C(\C)C(=O)[C@@]3(O)C[C@H](C)[C@H](O)[C@@H]3[C@H]1OC(=O)c1cn(CC)nc1-c1ccc(Cl)cc1)C2(C)C`, with 5.23; and `CCn1cc(C(=O)O[C@@H]2[C@H]3[C@@H](O)[C@@H](C)C[C@]3(O)C(=O)/C(C)=C/[C@@H]3[C@H](CC[C@]24CO4)C3(C)C)c(-c2ccc(N(C)C)cc2)n1`, with less than 4.70.

For `C=C1CC[C@H]2[C@@H](/C=C(\C)C(=O)[C@@]3(O)C[C@H](C)[C@H](O)[C@@H]3[C@H]1OC(=O)CCC(=O)OCc1ccc(COc3no[n+]([O-])c3S(=O)(=O)c3ccccc3)cc1)C2(C)C`, the pIC50 is 5.27.

On to `C/C1=C\[C@@H]2[C@H](CC[C@]3(CO3)[C@H](OC(=O)c3cnc(NC(=O)C4CCCCC4)s3)[C@H]3[C@@H](O)[C@@H](C)C[C@]3(O)C1=O)C2(C)C`, for which the pIC50 was 5.83.

The next assay deals with RAW264.7. Nature of the assay: Antiinflammatory activity against mouse RAW264.7 cells assessed as inhibition of LPS-induced ROS generation at […] preincubated for 3 hrs followed by LPS stimulation and measured after 12 hrs by DCFH-DA probe based flow cytometry. The note with it: time 15.0 hrs. The class given is functional, cell-based. For orientation: A flow cytometer gives signals particle by particle.
As for `CC(=O)N[C@@H](CS)C(=O)O`, the inhibition result is “Active”.
